Measurements taken from ChEMBL document CHEMBL6087460, “Generating a Peptide Library Using the Repeats of Amino Acid Scaffolds Created by Sliding the Framework of a 7-mer Human Chemerin Segment and Discovery of Potent Antibacterial and Antimycobacterial Peptides” (J Med Chem, 2025).
≈ marks a conversion by molar mass, not a printed value.

Columns and labels:
[1] = tested on: Klebsiella pneumoniae; assay: Antibacterial activity against Klebsiella pneumoniae ATCC 27736 incubated for 16 to 18 hrs by broth dilution assay; type: functional; settings: time 16-18 hrs
[2] = tested on: Bacillus subtilis; assay: Antibacterial activity against Bacillus subtilis 6633 incubated for 16 to 18 hrs by broth dilution assay; type: functional; settings: time 16-18 hrs
[3] = tested on: Escherichia coli; assay: Antibacterial activity against Escherichia coli ATCC 25922 incubated for 16 to 18 hrs by broth dilution assay; type: functional; settings: time 16-18 hrs
[4] = tested on: Staphylococcus aureus; assay: Antibacterial activity against methicillin-resistant Staphylococcus aureus 33591 incubated for 16 to 18 hrs by broth dilution assay; type: functional; settings: time 16-18 hrs
[5] = tested on: Staphylococcus aureus; assay: Antibacterial activity against methicillin-resistant Staphylococcus aureus BAA-44 incubated for 16 to 18 hrs by broth dilution assay; type: functional; settings: time 16-18 hrs
[6] = tested on: Staphylococcus aureus; assay: Antibacterial activity against Staphylococcus aureus ATCC 25923 incubated for 16 to 18 hrs by broth dilution assay; type: functional; settings: time 16-18 hrs
[7] = tested on: Pseudomonas aeruginosa; assay: Antibacterial activity against Pseudomonas aeruginosa ATCC BAA-427 incubated for 16 to 18 hrs by broth dilution assay; type: functional; settings: time 16-18 hrs
[8] = Hemolytic activity in human RBC measured after 40 mins by absorbance based assay; type: toxicity, cell-based, Erythrocyte; settings: human red blood cells
[9] = Retention time of compound by RP-HPLC method; type: physicochemical

With CC1(C)S[C@@H]2[C@H](NC(=O)[C@H](N)c3ccccc3)C(=O)N2[C@H]1C(=O)O [AMPICILLIN] the MIC [1] was 100 µM (≈ 34.9 µg/mL), the MIC [2] was 1.6 µM (≈ 0.559 µg/mL) and the MIC [3] was 12.5 µM (≈ 4.37 µg/mL). For the same compound, the MIC [4] was 12.5 µM (≈ 4.37 µg/mL), the MIC [5] was 25 µM (≈ 8.74 µg/mL) and the MIC [6] was 3.1 µM (≈ 1.08 µg/mL). It also gave an MIC [7] of 25 µM (≈ 8.74 µg/mL).

H-GRLGRLGRLGRL-OH gave an MIC [1] greater than 151 µM, an HC50 at 40 min [8] of 2 mM and an MIC [2] of 18.9 µM. For the same compound, the MIC [3] was 18.9 µM, the MIC [4] was 18.9 µM and the MIC [5] was 18.9 µM. It also gave an MIC [6] of 4.7 µM, a Retention_time [9] of 20.87 min and an MIC [7] of 75.6 µM.

Compound H-GRLVGRLVGRLV-OH has an MIC [1] of 155 µM, an HC50 at 40 min [8] of 2 mM and an MIC [2] greater than 155 µM. It also gave an MIC [3] of 155 µM, an MIC [4] greater than 155 µM and an MIC [5] greater than 155 µM. The MIC [6] was greater than 155 µM, the Retention_time [9] was 13.4 min and the MIC [7] was 155 µM.

Work on H-KVLGKVLGKVLG-OH yielded an MIC [1] greater than 165 µM, an HC50 at 40 min [8] of 2 mM and an MIC [2] greater than 165 µM. It also gave an MIC [3] greater than 165 µM, an MIC [4] greater than 165 µM and an MIC [5] greater than 165 µM. For the same compound, the MIC [6] was greater than 165 µM, the Retention_time [9] was 15.26 min and the MIC [7] was greater than 165 µM.

For H-KVLGRKVLGR-OH, the MIC [1] was greater than 178 µM, the HC50 at 40 min [8] was 2 mM and the MIC [2] was greater than 178 µM. The MIC [3] was 178 µM, the MIC [4] was greater than 178 µM and the MIC [5] was greater than 178 µM. It also gave an MIC [6] of 178 µM, a Retention_time [9] of 10.61 min and an MIC [7] greater than 178 µM.

H-KVLGRKVLGRKVLGR-OH gave an MIC [1] greater than 119 µM, an HC50 at 40 min [8] of 2 mM and an MIC [2] greater than 119 µM. The MIC [3] was 29.8 µM, the MIC [4] was greater than 119 µM and the MIC [5] was greater than 119 µM. The MIC [6] was 29.8 µM, the Retention_time [9] was 11.73 min and the MIC [7] was greater than 119 µM.

H-KVLGRLKVLGRL-OH showed an MIC [1] greater than 147 µM, an HC50 at 40 min [8] of 2 mM and an MIC [2] greater than 147 µM. The MIC [3] was 74 µM, the MIC [4] was greater than 147 µM and the MIC [5] was greater than 147 µM. For the same compound, the MIC [6] was greater than 147 µM, the Retention_time [9] was 16.81 min and the MIC [7] was greater than 147 µM.

Work on H-LGRLGRLGRLGR-OH yielded an MIC [1] greater than 151 µM, an HC50 at 40 min [8] of 2 mM and an MIC [2] of 151 µM. The MIC [3] was 15.5 µM, the MIC [4] was greater than 151 µM and the MIC [5] was greater than 151 µM. The MIC [6] was greater than 151 µM, the Retention_time [9] was 20.45 min and the MIC [7] was greater than 151 µM.

For H-LGRLGRLGRLGRLGR-OH, the MIC [1] was greater than 121 µM, the HC50 at 40 min [8] was 2 mM and the MIC [2] was 30.3 µM. It also gave an MIC [3] of 1.9 µM, an MIC [4] greater than 121 µM and an MIC [5] of 60.6 µM. The MIC [6] was 1.9 µM, the Retention_time [9] was 16.23 min and the MIC [7] was 60.6 µM.

With H-LGRLVLGRLV-OH the MIC [1] was greater than 183 µM, the HC50 at 40 min [8] was 2 mM and the MIC [2] was greater than 183 µM. It also gave an MIC [3] of 91.4 µM, an MIC [4] greater than 183 µM and an MIC [5] greater than 183 µM. For the same compound, the MIC [6] was 183 µM, the Retention_time [9] was 16.21 min and the MIC [7] was greater than 183 µM.

Compound H-LGRLVLGRLVLGRLV-OH has an MIC [1] greater than 122 µM, an HC50 at 40 min [8] of 2 mM and an MIC [2] greater than 122 µM. The MIC [3] was 7.6 µM, the MIC [4] was greater than 122 µM and the MIC [5] was 61.2 µM. For the same compound, the MIC [6] was 15.3 µM, the Retention_time [9] was 18.77 min and the MIC [7] was greater than 122 µM.

H-VLGRLVLGRL-OH gave an MIC [1] of 183 µM, an HC50 at 40 min [8] of 2 mM and an MIC [2] greater than 183 µM. It also gave an MIC [3] of 183 µM, an MIC [4] greater than 183 µM and an MIC [5] greater than 183 µM. It also gave an MIC [6] of 183 µM, a Retention_time [9] of 16.21 min and an MIC [7] of 183 µM.

H-VLGRLVLGRLVLGRL-OH gave an MIC [1] greater than 122 µM, an HC50 at 40 min [8] of 2 mM and an MIC [2] greater than 122 µM. The MIC [3] was 7.6 µM, the MIC [4] was 122 µM and the MIC [5] was 61.2 µM. The MIC [6] was 7.6 µM, the Retention_time [9] was 19.07 min and the MIC [7] was greater than 122 µM.

Compound H-VLGRLVVLGRLV-OH has an MIC [1] greater than 155 µM, an HC50 at 40 min [8] of 2 mM and an MIC [2] greater than 155 µM. The MIC [3] was 77.4 µM, the MIC [4] was greater than 155 µM and the MIC [5] was greater than 155 µM. The MIC [6] was greater than 155 µM, the Retention_time [9] was 17.91 min and the MIC [7] was greater than 155 µM.

With H-VLGRVLGRVLGR-OH the MIC [1] was greater than 155 µM, the HC50 at 40 min [8] was 2 mM and the MIC [2] was greater than 155 µM. For the same compound, the MIC [3] was greater than 155 µM, the MIC [4] was greater than 155 µM and the MIC [5] was greater than 155 µM. For the same compound, the MIC [6] was greater than 155 µM, the Retention_time [9] was 15.4 min and the MIC [7] was greater than 155 µM.
